This passage reports Kd, IC50 and Ki results from ChEMBL document CHEMBL6096693, “Fragment-to-Lead Medicinal Chemistry Publications in 2023” (J Med Chem, 2025).

The pKd is the Kd on a negative log10 scale, so that one unit is a factor of ten. For orientation: pIC50 means the IC50 on a negative log10 scale, so that one unit is a factor of ten. As usually defined, the pKi is the negative decadic logarithm of the Ki, by convention in mol/L.

pIC50, pKd, pKi: −log10 of the molar value. A value given as a limit tells only on which side of the number the result lay.

A short description of test [1]: Binding affinity to Interleukin-1beta (unknown origin) assessed as dissociation constant by SPR analysis. On the set-up: species or system Homo sapiens.
The target in test [2] is Epidermal growth factor receptor (Homo sapiens, UniProt P00533). Kind of test: Inhibition of EGFR (unknown origin).
Test [3] concerns the target T1, ATPase family AAA domain-containing protein 2 (Homo sapiens, UniProt Q6PL18).
T1 sequence (Q6PL18 whole entry): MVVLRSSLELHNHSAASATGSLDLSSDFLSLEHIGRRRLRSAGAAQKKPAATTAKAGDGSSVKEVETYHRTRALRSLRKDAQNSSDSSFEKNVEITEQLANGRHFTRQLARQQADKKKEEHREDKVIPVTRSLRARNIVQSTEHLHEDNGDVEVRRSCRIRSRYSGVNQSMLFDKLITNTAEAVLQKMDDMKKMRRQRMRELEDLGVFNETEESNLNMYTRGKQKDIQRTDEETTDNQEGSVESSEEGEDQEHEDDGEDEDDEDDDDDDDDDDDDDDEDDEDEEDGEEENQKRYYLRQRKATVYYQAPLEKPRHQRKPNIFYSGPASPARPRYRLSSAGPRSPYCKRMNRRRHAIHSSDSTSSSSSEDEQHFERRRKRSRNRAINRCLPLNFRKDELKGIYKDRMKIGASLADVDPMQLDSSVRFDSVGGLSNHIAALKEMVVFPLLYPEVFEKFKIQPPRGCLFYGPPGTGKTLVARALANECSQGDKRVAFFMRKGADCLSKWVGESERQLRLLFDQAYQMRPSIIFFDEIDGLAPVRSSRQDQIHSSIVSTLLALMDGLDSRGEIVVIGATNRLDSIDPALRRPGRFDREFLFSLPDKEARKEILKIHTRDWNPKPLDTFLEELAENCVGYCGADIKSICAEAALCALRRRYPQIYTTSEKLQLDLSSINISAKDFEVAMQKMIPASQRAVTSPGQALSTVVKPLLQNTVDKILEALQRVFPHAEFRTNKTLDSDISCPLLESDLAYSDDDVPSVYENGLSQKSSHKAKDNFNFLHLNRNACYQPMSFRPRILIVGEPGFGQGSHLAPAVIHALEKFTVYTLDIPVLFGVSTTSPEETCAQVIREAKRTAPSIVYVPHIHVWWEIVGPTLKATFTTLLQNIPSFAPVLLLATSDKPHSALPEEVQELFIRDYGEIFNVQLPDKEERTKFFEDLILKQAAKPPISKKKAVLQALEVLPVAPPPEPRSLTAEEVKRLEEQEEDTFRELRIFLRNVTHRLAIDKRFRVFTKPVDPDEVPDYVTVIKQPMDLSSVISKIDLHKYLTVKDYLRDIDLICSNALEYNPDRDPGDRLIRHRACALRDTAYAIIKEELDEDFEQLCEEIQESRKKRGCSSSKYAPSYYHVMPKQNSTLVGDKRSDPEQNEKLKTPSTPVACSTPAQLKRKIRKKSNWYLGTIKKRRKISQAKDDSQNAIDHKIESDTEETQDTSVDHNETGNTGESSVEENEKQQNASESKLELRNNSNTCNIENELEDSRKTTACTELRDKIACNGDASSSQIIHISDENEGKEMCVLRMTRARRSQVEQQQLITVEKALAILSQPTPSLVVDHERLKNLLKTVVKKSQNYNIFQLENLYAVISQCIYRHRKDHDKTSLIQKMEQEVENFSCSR
Description: Inhibition of recombinant ATAD2 bromodomain (unknown origin) by TR-FRET assay. A general note: In TR-FRET formats the signal depends on donor and acceptor labels being close together.

Test [4] deals with Bifunctional dihydrofolate reductase-thymidylate synthase (Plasmodium falciparum K1, UniProt P13922). Description: Binding affinity to Plasmodium falciparum DHFR assessed as inhibition constant.
Test [5] has as its target Bromodomain-containing protein 4 (Homo sapiens, UniProt O60885). Description: Inhibition of BRD4 BD1 (unknown origin) using biotinylated tetra-acetylated H4 peptide SGRG-K(Ac)-GG-K(Ac)-GLG-K(Ac)-GGA-K(Ac)-RHRK-Biotin as substrate incubated for 60 mins by TR-FRET analysis.
Test [6] in a line: Inhibition of SARS-CoV2 Mac1 extracted from Escherichia coli Rosetta2 (DE3). Set-up: species or system Severe acute respiratory syndrome coronavirus 2.
In another test the target is T2, Coagulation factor XII (Homo sapiens, UniProt P00748).
T2 sequence (P00748 whole entry): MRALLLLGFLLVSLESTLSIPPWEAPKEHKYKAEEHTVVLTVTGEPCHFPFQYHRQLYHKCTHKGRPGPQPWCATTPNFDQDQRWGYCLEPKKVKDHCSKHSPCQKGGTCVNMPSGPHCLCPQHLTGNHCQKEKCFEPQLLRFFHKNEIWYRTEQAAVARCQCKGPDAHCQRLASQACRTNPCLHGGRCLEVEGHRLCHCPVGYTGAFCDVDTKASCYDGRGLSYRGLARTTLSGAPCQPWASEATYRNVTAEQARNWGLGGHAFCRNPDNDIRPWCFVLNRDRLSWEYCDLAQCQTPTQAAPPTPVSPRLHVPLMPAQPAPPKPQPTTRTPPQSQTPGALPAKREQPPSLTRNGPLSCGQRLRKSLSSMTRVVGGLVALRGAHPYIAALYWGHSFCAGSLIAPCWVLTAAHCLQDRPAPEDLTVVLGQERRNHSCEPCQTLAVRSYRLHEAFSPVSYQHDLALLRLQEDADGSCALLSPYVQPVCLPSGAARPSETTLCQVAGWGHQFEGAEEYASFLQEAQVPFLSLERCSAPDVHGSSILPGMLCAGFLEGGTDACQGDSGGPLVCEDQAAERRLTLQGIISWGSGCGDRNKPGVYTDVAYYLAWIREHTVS
Description: Inhibition of human FXIIa (unknown origin).

Chain of Epidermal growth factor receptor (P00533 whole entry, the tested form may be a part): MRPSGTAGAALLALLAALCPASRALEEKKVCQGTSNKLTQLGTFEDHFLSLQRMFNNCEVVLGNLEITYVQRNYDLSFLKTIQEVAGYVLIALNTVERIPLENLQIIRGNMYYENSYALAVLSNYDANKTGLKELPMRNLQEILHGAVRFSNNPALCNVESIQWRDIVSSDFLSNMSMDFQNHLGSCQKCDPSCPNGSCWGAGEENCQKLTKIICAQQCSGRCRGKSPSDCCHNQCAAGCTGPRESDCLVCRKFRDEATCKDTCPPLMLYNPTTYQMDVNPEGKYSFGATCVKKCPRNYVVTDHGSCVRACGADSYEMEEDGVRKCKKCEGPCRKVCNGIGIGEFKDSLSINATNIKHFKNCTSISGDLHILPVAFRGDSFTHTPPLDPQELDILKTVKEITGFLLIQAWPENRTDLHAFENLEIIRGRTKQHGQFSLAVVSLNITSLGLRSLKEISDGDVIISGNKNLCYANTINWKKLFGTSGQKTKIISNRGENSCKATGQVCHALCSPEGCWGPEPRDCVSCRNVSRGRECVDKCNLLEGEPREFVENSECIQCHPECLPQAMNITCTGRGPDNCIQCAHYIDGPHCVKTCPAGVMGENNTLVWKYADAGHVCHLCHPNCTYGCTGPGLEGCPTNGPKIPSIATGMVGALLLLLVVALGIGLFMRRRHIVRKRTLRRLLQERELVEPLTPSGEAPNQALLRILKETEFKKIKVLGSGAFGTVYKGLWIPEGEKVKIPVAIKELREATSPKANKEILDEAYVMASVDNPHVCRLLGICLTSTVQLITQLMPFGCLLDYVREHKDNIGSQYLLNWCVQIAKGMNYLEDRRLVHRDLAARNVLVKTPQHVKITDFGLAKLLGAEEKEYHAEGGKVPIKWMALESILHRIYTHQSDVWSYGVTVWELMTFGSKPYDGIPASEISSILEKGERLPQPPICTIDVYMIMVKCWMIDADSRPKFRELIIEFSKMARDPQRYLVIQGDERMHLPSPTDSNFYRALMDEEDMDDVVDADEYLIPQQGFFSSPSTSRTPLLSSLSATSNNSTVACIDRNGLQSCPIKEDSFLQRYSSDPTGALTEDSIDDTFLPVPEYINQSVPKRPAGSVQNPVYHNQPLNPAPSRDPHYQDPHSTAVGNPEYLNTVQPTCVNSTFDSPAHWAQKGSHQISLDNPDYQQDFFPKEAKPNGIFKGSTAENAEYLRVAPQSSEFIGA
Chain of Bifunctional dihydrofolate reductase-thymidylate synthase (P13922 whole entry): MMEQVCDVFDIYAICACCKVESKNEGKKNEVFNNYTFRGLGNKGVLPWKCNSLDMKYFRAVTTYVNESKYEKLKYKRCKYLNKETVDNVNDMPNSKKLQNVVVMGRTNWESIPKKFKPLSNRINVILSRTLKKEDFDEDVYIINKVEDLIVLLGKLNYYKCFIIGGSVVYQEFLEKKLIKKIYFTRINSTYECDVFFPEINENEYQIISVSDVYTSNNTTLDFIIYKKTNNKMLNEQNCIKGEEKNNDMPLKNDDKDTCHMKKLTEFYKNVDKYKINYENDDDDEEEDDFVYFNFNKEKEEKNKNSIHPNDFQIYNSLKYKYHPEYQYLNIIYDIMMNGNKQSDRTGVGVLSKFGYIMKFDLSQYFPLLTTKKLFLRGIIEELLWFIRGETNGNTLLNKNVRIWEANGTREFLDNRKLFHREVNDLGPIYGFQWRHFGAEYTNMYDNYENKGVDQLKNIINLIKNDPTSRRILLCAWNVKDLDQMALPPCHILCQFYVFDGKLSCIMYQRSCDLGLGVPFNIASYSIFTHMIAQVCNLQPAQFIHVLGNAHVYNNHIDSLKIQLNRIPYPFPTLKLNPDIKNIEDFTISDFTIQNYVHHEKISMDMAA

On to `Cc1ccc2c(c1)NC(=O)[C@@]2(c1cn[nH]c1)c1cc(-c2ccc(C(=O)O)cc2C(=O)O)ccc1O`, for which the negative-log Kd (pKd) in test [1] was 5.96.
In test [2], `C=CC(=O)Nc1ccccn1` had a pIC50 below 3.30.
For `Cn1c(=O)c2[nH]cnc2n(C)c1=O` [THEOPHYLLINE ANHYDROUS], the negative logarithm of the IC50 (pIC50) in test [3] is 3.49.
`C=CC(=O)Nc1cc(-c2cn(C)c3ccccc23)ncn1` showed a pIC50 in test [2] of 6.05.
As to `O=C1Nc2cc(C(F)(F)F)ccc2C1(O)c1cc(Cl)ccc1O` (configuration not stated), the pKd in test [1] is 3.28.
Turning to `O=C(O)c1cccc(-c2ccncc2)c1`, in test [4], the negative logarithm of the Ki (pKi) was below 3.30.
In turn, `O=C(O)c1cc(-c2c[nH]c3ccccc23)on1` showed a pIC50 in test [5] of 4.01.
On the same count and under the same terms, as for `Cc1cc(C)on1`, the figure is 4.08.
On the same count and under the same terms, as for `CCNC(=O)[C@H](C)NC(=O)Cn1cc(-c2c(C)noc2C)cn1`, the figure is 7.30; as for `Cn1cc(-c2onc(C(=O)O)c2CO)c2ccccc21`, 6.04.
`O=C(Nc1ccc(C(=O)N[C@H]2c3cccc(O)c3C[C@H]2C(=O)O)cc1)NC1CC1`: the pIC50 in test [6] is below 3.74; at Coagulation factor XII, 3.41.
